According to patent US20030225230A1, “Polymers for antifouling coatings and a process for the preparation thereof” (Jotun A/S, priority 1995, published 2003):

Assays:
[1] = Determination of the hydrolysis rate of monomers in alkaline environment (pH 12); format: physicochemical; settings: monomer in aqueous solution, starting pH 12, 25 °C

Hydrolysis Rate (4.5 h) [1] [%]	Hydrolysis Rate after 24 h [1] [%]	melting point [°C]	Molecule
	54.8		4-Methacryloyloxymethylbenzoate
	43.2	40	C=C(C)C(=O)Oc1ccc(OC)cc1 [4-Methoxyphenylmethacrylate]
	35.6	52	C=C(C)C(=O)Oc1ccc(Br)cc1C=O [5-Bromo-2-methacryloyloxybenzaldehyde]
63.1		60	C=C(C)C(=O)OCC(=O)OC [Methoxycarbonylmethylmethacrylate]

More lines, now with the values behind:

Molecule	Hydrolysis Rate (4.5 h) [1] [%]	Hydrolysis Rate after 24 h [1] [%]	melting point [°C]
2-Methacryloyloxymethylbenzoate	64.4		
C=C(C)C(=O)Oc1c(Br)cc(Br)cc1Br [2,4,6-Tribromophenylmethacrylate]		13.3	140
C=C(C)C(=O)Sc1nc(-c2ccccc2)ns1 [3-Phenyl-5-methacryloylthio-1,2,4-thiadiazole]		12.6	110
C=C(C)C(=O)Sc1ccc(Cl)cc1 [4-Chlorothlophenylmethacrylate]		78.0	
C=C(C)C(=O)Oc1ccc(NC(C)=O)cc1 [4-Methacryloyloxy acetanilide]		32.9	
C=C(C)C(=O)OCC(=O)O [Methacryloytoxy acetic acid]		70.1	
C=C(C)C(=O)OCC(=O)OC(C)(C)C [t-Butoxycarbonylmethylmethacrylate]		77.6	65
Ethyloxythioglycolic acid methacrylate		80.2	
